SMILES strings stand for the structures.

The values below come from EP0294746A1, “Bicyclic nitro compounds” (L. GIVAUDAN & CIE Société Anonyme, priority 1987, dated 1988).

Experiment [1] in a line: Odour threshold and odour value determination. As to conditions: definition per Huber, Seifen-Oele-Fette-Wachse 110 (1984) 448-451. The method, then: Die Verbindungen der Formel I eignen sich aufgrund ihrer natürlichen Geruchsnoten insbesondere zur Modifizierung von bekannten Kompositionen. Hervorgehoben werden soll insbesondere ihre ausserordentliche Geruchsstärke: Der Geruchsschwellenwert beträgt 0,29 bzw. 0,57 ng/l, der Geruchswert 2983 bzw. 2139. Bezüglich Definition von Geruchswert und Geruchsschwellenwert siehe z.B. Ulrich A. Huber, Seifen - -Oele - Fette - Wachse 110, Nr. 15 (1984) 448-451.

A short description of experiment [2]: Odour description (olfactory evaluation). To be noted: odour note in words.

Regarding `CCc1cc2c(cc1[N+](=O)[O-])C(C)(C)CCC2(C)C` [Beispiel 1, 6-Nitro-7-äthyl-1,1,4,4-tetramethyl-1,2,3,4-tetrahydronaphthalin], the Geruchsschwellenwert in experiment [1] is given as 0,57 ng/l. Moreover, the Geruch result in experiment [2] was “Moschus-artig, süss, pudrig”.
As to `CCc1cc2c(cc1[N+](=O)[O-])C(C)(C)C(C)C2(C)C` (stereo not shown) [Beispiel 2, 5-Nitro-6-äthyl-1,1,2,3,3-pentamethylindan], the Geruchsschwellenwert in experiment [1] is 0,29 ng/l. Moreover, the Geruch entry in experiment [2] is given as “moschus-artig”.
